Data reported in patent EP0170623B1, “Novel pharmaceutical use of (NVA)2-cyclosporine” (SANDOZ AG, priority 1984, dated 1990).

Test system: Experimental Autoimmune Uveitis (EAV)
Conditions: 25 to 50 mg/kg/day i.m. on 7 consecutive days commencing 7 days after immunization with bovine S antigen; histopathology on day 14; compared with olive oil control groups

With (Nva)^2-Cyclosporine the “number of animals evidencing EAV” value was “substantial reduction”.
